The values that follow come from patent US20250326722A1 (SHANGHAI HANSOH BIOMEDICAL CO., LTD., priority 2022, published 2025).

pIC50: −log10 of the molar value.

Series [1] concerns the target PCSK9 secreted by HepG2 cells (Homo sapiens (Human), UniProt Q8NBP7). Description: Effect on the concentration of PCSK9 secreted by HepG2 cells (ELISA). The class given is cell-based. Conditions: 48 hours incubation, read-out: Inhibitory activity on PCSK9, IC50. The text has this:
• 1. Experimental objective: To detect the inhibitory effect of the compounds on PCSK9. • 2. Experimental instruments and reagents: • 2.1 Instruments:
• CircuLex Human PCSK9 ELISA kit (MBL: CY-8079); • DMEM (Gibco: 31966-021) • FBS (Sigma: S5394) • Compound plate (Thermo: 1353506) • Complete culture medium: DMEM+10% FBS+1×P/S; • Experimental culture medium: DMEM+10% FBS • Cell strain: HepG2 (ATCC: HB-8065)
A self-adhesive seal was applied, the plate was placed on a plate shaker at room temperature, gently shaken, uniformly mixed, and incubated for 1 hour. • 11) The plate was placed on the plate washer, the washing liquid was set to 350 μL per well, and the plate was washed 4 times repeatedly. • 12) 100 μL/well of an HRP-conjugated detection antibody was added, a self-adhesive seal was applied, and the plate was placed on the plate shaker, well mixed uniformly, and incubated for 1 hour. • 13) The plate was placed on the plate washer, the washing liquid was set to 350 μL per well, and the plate was washed 4 times repeatedly. • 14) 100 μL/well of Substrate reagent was added, and the plate was placed in the dark, applied with a self-adhesive seal, placed on the plate shaker, well mixed uniformly, and incubated for 10-20 minutes. • 15) 100 μL/well of Stop solution (1N H2SO4) was added and mixed uniformly. • 16) The optical density (OD) value in each well was measured in sequence at a wavelength of 450 nm by the microplate reader. Detection was carried out within 30 min after the reaction was stopped.
After the OD values were read by the microplate reader, the OD value of the 0-concentration standard in the standard group was subtracted from the OD values of the standards, control group, and samples to obtain the actual OD values for these wells. A standard curve was plotted with Graphpad and the concentration of the sample was calculated. If the dilution was performed during the sample detection, the calculated sample concentration was necessarily multiplied by the corresponding dilution ratio in the final calculation, which was the actual concentration of the sample. Inhibition rate=(actual concentration in control-actual concentration in sample)/actual concentration in control*100. According to the inhibition rates corresponding to the different concentrations, IC50 was derived by Graphpad.
On the technique in general: An ELISA detects its analyte on a solid surface through an enzyme-linked reagent.

Series [2] is described as follows: Pharmacokinetic determination in mice (plasma). The format is in vivo, C57BL/6J mice. The settings on record: C57 mice, PO administration, 5 mpk. The protocol: C57BL/6J mice were used as test animals to study the pharmacokinetic behavior of the compounds of the present disclosure in mice (plasma) after oral and intravenous administration.
C57 mice, male, purchased from Shanghai Bk Lab Animal Co., Ltd., with animal production license number (SCXK (Shanghai) 2013-0006 NO.311620400001794).
• Preparation of oral drug: 10% Solutol HS15
10 g of Solutol HS15 solid was weighed, dissolved in 90 mL of pure water, uniformly mixed, stirred, and ultrasonically treated to form a clear solution.
The compound of the present disclosure was weighed and dissolved in this solution, uniformly shaken, and ultrasonically treated for 15 minutes to obtain a colorless clear solution with a concentration of 0.5 mg/mL. • Preparation of intravenous drug: 5% DMSO+10% Solutol HS15+85% PBS […]
3 male C57 mice were fasted overnight and then respectively administered PO at a dose of 5 mg/kg and a volume of 10 mL/kg. […]
Before and after administration of mice, 0.04 mL of blood was collected from the orbit at 0.083 (iv), 0.25, 0.5, 1, 2, 4, 8, and 24 hours, and placed in EDTA-K2 test tubes, which was centrifuged at 6000 rpm at 4° C. for 6 min to separate plasma which was stored at −80° C.; and the […] were fed 4 h after administration.
The final determination results were obtained by using an LCMS/MS method.
The main pharmacokinetic parameters were calculated using WinNonlin 6.1.

Sequence of PCSK9 secreted by HepG2 cells (Q8NBP7 153-692): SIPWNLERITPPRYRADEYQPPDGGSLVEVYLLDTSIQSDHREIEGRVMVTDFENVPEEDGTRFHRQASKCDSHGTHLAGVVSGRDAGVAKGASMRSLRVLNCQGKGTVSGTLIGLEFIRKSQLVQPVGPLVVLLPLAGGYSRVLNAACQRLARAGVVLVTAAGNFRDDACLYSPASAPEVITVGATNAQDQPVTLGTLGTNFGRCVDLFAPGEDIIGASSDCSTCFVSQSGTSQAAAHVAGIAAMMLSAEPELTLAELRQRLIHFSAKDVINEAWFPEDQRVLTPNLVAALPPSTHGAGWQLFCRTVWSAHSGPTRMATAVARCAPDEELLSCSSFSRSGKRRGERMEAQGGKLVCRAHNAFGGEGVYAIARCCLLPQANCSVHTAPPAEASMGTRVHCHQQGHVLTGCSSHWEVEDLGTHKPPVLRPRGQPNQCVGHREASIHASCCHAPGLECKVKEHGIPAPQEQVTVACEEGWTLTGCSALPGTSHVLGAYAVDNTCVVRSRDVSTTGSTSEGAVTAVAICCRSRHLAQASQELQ
Sequence of PCSK9 secreted by HepG2 cells (Q8NBP7 31-152 partner): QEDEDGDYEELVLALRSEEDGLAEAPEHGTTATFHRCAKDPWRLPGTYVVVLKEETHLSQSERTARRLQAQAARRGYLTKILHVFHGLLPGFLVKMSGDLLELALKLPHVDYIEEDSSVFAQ

Usually pIC50 stands for the IC50 on a negative log10 scale, so that one unit is a factor of ten. `O=c1ccccn1-c1ccc(N[C@H]2CC[C@H](Nc3ncc(C4CC4)nn3)C2)nc1` [Example 63, 6′-(((1S,3S)-3-((6-cyclopropyl-1,2,4-triazin-3-yl)amino)cyclopentyl)amino)-2H-[1,3′-bipyridinyl]-2-one]: the pIC50 in series [1] was 4.98.
The same measure, in the same setting: for `CC(C)(O)c1cccn(-c2ccc(N[C@H]3CC[C@H](Nc4ncc(OC(F)F)cn4)C3)nc2)c1=O` [Example 64, 6′-(((1S,3S)-3-((5-(difluoromethoxy)pyrimidin-2-yl)amino)cyclopentyl)amino]-3-(2-hydroxyprop-2-yl)-2H-[1,3′-bipyridinyl]-2-one] the value was 5.00; for `O=C1c2cnccc2CN1c1ccc(N[C@H]2CC[C@H](Nc3ncc(OC(F)F)cn3)C2)nc1` [Example 75, 2-(6-(((1S,3S)-3-((5-(difluoromethoxy)pyrimidin-2-yl)amino)cyclopentyl)amino)pyridin-3-yl)-1,2-dihydro-3H-pyrrolo[3,4-c]pyridin-3-one], 5.05; for `O=c1ccccn1-c1ccc(N[C@H]2CC[C@H](Nc3nsc(C4CC4)n3)C2)nc1` [Example 78, 6′-(((1S,3S)-3-((5-cyclopropyl-1,2,4-thiadiazol-3-yl)amino)cyclopentyl)amino)-2H-[1,3′-bipyridinyl]-2-one], 4.85.
The term MRT denotes the average time that molecules of a dose stay in the body. `Cc1ccn2nc(N[C@H]3CC[C@H](Nc4ccc(-n5ccccc5=O)cn4)C3)nc2c1` [Example 87, 6′-(((1S,3S)-3-((7-methyl-[1,2,4]triazolo[1,5-a]pyridin-2-yl)amino)cyclopentyl)amino)-2H-[1,3′-bipyridinyl]-2-one] came in with a Time to peak tmax in series [2] of 0.25 h. Besides, in series [2] (male, C57BL/6J, mouse, 5 mg/kg, read-out: Area under the curve AUC0-∞), the AUC(0-inf) is 10700 ng·h/mL. Also, the half-life in series [2] (male, C57BL/6J, mouse, 5 mg/kg, read-out: Half-life t1/2 (converted)) is 4.7 h. Further, the MRT in series [2] (male, C57BL/6J, mouse, 5 mg/kg, read-out: Mean residence time MRT) is 3.1 h. Also, in series [2] (male, C57BL/6J, mouse, 5 mg/kg, read-out: Plasma concentration Cmax), the Cmax was determined as 5510 ng/mL.
Consider `O=S1(=O)CCCN1c1ccc(N[C@H]2CC[C@H](Nc3ncc(OC(F)F)cn3)C2)nc1` [Example 91, 2-(6-(((1S,3S)-3-((5-(difluoromethoxy)pyrimidin-2-yl)amino)cyclopentyl)amino)pyridin-3-yl)-1,1-dioxoisothiazolane], for which the pIC50 in series [1] is 4.66.
The same measure, in the same setting: in the case of `O=c1n(-c2ccc(N[C@H]3CC[C@H](Nc4ncc(OC(F)F)cn4)C3)nc2)c2nccnc2n1C1CC1` [Example 97, 1-Cyclopropyl-3-(6-(((1S,3S)-3-((5-(difluoromethoxy)pyrimidin-2-yl)amino)cyclopentyl)amino)pyridin-3-yl)-1,3-dihydro-2H-imidazo[4,5-b]pyrazin-2-one] it was 4.94; in that of `O=c1c(-c2ccc(N[C@H]3CC[C@H](Nc4ncc(OC(F)F)cn4)C3)nc2)cnc2ccccn12` [Example 108, 3-(6-(((1S,3S)-3-((5-(difluoromethoxy)pyrimidin-2-yl)amino)cyclopentyl)amino)pyridin-3-yl)-4H-pyridino[1,2-a]pyrimidin-4-one], 5.42.
Still for that read-out and setting: in the case of `Cc1cnn2c(-c3ccc(N[C@H]4CC[C@H](Nc5ncc(OC(F)F)cn5)C4)nc3)cccc12` [Example 117, (1S,3S)—N1-(5-(difluoromethoxy)pyrimidin-2-yl)-N3-(5-(3-methylpyrazolo[1,5-a]pyridin-7-yl)pyridin-2-yl)cyclopentane-1,3-diamine] it was 5.44; in that of `N#Cc1cnn2c(-c3ccc(N[C@H]4CC[C@H](Nc5ncc(OC(F)F)cn5)C4)nc3)ccnc12` [Example 118, 7-(6-(((1S,3S)-3-((5-(difluoromethoxy)pyrimidin-2-yl)amino)cyclopentyl)amino)pyridin-3-yl) pyrazolo[1,5-a]pyrimidine-3-carbonitrile], 6.30; in that of `CC1(C)CCN(c2ccc(N[C@H]3CC[C@H](Nc4ncc(OC(F)F)cn4)C3)nc2)S1(=O)=O` [Example 119], 4.76.
The same measure, in the same setting: for `CC1(C)CCCN(c2ccc(N[C@H]3CC[C@H](Nc4ncc(OC(F)F)cn4)C3)nc2)S1(=O)=O` [Example 120] the value was 4.87; for `O=S1(=O)c2ncccc2CN1c1ccc(N[C@H]2CC[C@H](Nc3ncc(OC(F)F)cn3)C2)nc1` [Example 121], 4.56.
Consider `O=C1c2cccnc2CN1c1ccc(N[C@H]2CC[C@H](Nc3ncc(OC(F)(F)Br)cn3)C2)nc1` [Example 123, 6-(6-(((1S,3S)-3-((5-(bromodifluoromethoxy)pyrimidin-2-yl)amino)cyclopentyl)amino)pyridin-3-yl)-6,7-dihydro-5H-pyrrolo[3,4-b]pyridin-5-one], for which the pIC50 in series [1] is 5.48.
Same read-out and setting: in the case of `Cc1nc(N[C@H]2CC[C@H](Nc3ccc(N4Cc5cccnc5C4=O)cn3)C2)nc2ccccc12` [Example 131, 6-(6-(((1S,3S)-3-((4-methylquinazolin-2-yl)amino)cyclopentyl)amino)pyridin-3-yl)-5,6-dihydro-7H-pyrrolo[3,4-b]pyridin-7-one] it was 5.70; in that of `O=C1c2ncc(F)cc2CN1c1ccc(N[C@H]2CC[C@H](Nc3ncc(OC(F)F)cn3)C2)nc1` [Example 136], 5.02; in that of `O=C1c2cc(F)cnc2CN1c1ccc(N[C@H]2CC[C@H](Nc3ncc(OC(F)F)cn3)C2)nc1` [Example 137], 5.13.
On to `O=C1c2cc(C(F)(F)F)ncc2CN1c1ccc(N[C@H]2CC[C@H](Nc3ncc(OC(F)F)cn3)C2)nc1` [Example 138, 2-(6-(((1S,3S)-3-((5-(difluoromethoxy)pyrimidin-2-yl)amino)cyclopentyl)amino)pyridin-3-yl)-6-trifluoromethyl-2,3-dihydro-1H-pyrrolo[3,4-c]pyridin-1-one], for which the pIC50 in series [1] was 6.30.
Still for that read-out and setting: for `FC(F)Oc1cnc(N[C@H]2CC[C@H](Nc3ccc(-c4cccc5ncnn45)cn3)C2)nc1` [Example 139, (1S,3S)—N1-(5-([1,2,4]triazolo[1,5-a]pyridin-5-yl)pyridin-2-yl)-N3-(5-(difluoromethoxy)pyrimidin-2-yl)cyclopentane-1,3-diamine] the value was 4.98; for `O=C1c2nc(C3CC3)ccc2CN1c1ccc(N[C@H]2CC[C@H](Nc3ncc(OC(F)F)cn3)C2)nc1` [Example 141], 5.74; for `CC1(C)C(=O)N(c2ccc(N[C@H]3CC[C@H](Nc4ncc(OC(F)F)cn4)C3)nc2)c2cccnc21` [Example 150], 4.84.
Turning to `O=S1(=O)c2ncccc2CN1c1ccc(N[C@H]2CC[C@H](Nc3ncc(C(F)(F)F)nn3)C2)nc1` [Example 154, 2-(6-(((1S,3S)-3-((6-(trifluoromethyl)-1,2,4-triazin-3-yl)amino)cyclopentyl)amino)pyridin-3-yl)-2,3-dihydroisothiazolo[5,4-b]pyridine 1,1-dioxide], the pIC50 in series [1] was 4.88.
Still for that read-out and setting: for `Cc1cc2c(cn1)CN(c1ccc(N[C@H]3CC[C@H](Nc4ncc(C5CC5)nn4)C3)nc1)C2=O` [Example 160] the value was 5.21; for `O=C1c2ncc(F)cc2CN1c1ccc(N[C@H]2CC[C@H](Nc3nc4cc(C(F)(F)F)ccn4n3)C2)nc1` [Example 163, 3-Fluoro-6-(6-(((1S,3S)-3-((7-(trifluoromethyl)-[1,2,4]triazolo[1,5-a]pyridin-2-yl)amino)cyclopentyl)amino)pyridin-3-yl)-5,6-dihydro-7H-pyrrolo[3,4-b]pyridin-7-one], 4.92.
